Assay results taken from US7799738B2, “Insecticidal 2-acylaminothiazole-4-carboxamides” (Bayer CropScience AG, priority 2005, dated 2010).

Test system: Spodoptera litura
Experiment: Test for embryos of Spodoptera litura (sweet potato leaf dip)
Format: in vivo
Settings: effective ingredient concentration 20 ppm; 3 instar, sweet potato leaves immersed; dead counted after 7 days, 25° C.
Description: Preparation of Sample Drug Solution
1 Part by weight of the active compound was mixed with the above-mentioned amount of a solvent containing the above-mentioned amount of emulsifier in order to prepare the formulation of an appropriate active compound, and the mixture was diluted with water to a predetermined concentration.
The leaves of sweet potato were immersed in a sample drug solution which was diluted with water to a predetermined concentration and charged in a petri dish with a diameter of 9 cm after drying the drug solution. 10 of embryos with 3 instar of Spodoptera litura were dropped thereto, the petri dish was placed in a constant temperature chamber at 25° C., the leaves of sweet potato were additionally added after 2 days and 4 days and the number of dead embryos was examined after 7 days to calculate an insecticidal rate.
In the present test, the result of 2 petri dishes per one partition was averaged.

SMILES	insecticidal rate [%]
Cc1cc(C(F)(C(F)(F)F)C(F)(F)F)cc(C)c1NC(=O)c1csc(NC(=O)c2ccccc2Cl)n1 [compound 34, 2-(2-chlorobenzoyl)amino-N-(2,6-dimethyl-4 heptafluoroisopropylphenyl)-1,3-thiazole-4-carboxamide]	100
Cc1cc(C(F)(C(F)(F)F)C(F)(F)F)cc(C)c1NC(=O)c1csc(NC(=O)c2cccc(Cl)c2)n1 [compound 67, 2-(3-chlorobenzoyl)amino-N-(2,6-dimethyl-4-heptafluoro-isopropylphenyl)-1,3-thiazole-4-carboxamide]	100
